What was measured:
[1] = test system: Heteranthera limosa; assay: Test B flooded paddy test; type: in vivo; settings: Flood, 250 g ai/ha, 0 to 100 scale where 0 is no effect and 100 is complete control
Procedure, shortened: (§1)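 Plants were grown to the 2-leaf stage, then pots were flooded to 3 cm above the soil and compounds were applied directly into the paddy water. That depth was held throughout, and after 13 to 15 days in the greenhouse injury was rated visually against controls on a 0–100 scale (0 no effect, 100 complete control).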

[2] = test system: morningglory; assay: Test A postemergence; type: in vivo, Ipomoea spp.
Procedure, shortened: (§2)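 Injury scores run from 0, no effect, to 100, complete control, judged by eye against untreated plants roughly 10 days after treatment. Chemicals carried a surfactant in a non-phytotoxic solvent and went onto loam–sand soil preemergence or onto one- to two-leaf seedlings postemergence.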

[3] = test system: sedge, umbrella; assay: Test B flooded paddy test; type: in vivo, Cyperus difformis; settings: Flood, 250 g ai/ha, 0 to 100 scale where 0 is no effect and 100 is complete control
Procedure, shortened: as §1

[4] = test system: velvetleaf; assay: Test A postemergence; type: in vivo, Abutilon theophrasti
Procedure, shortened: as §2

[5] = test system: velvetleaf; assay: Test A preemergence; type: in vivo, Abutilon theophrasti
Procedure, shortened: as §2

[6] = test system: wheat; assay: Test A postemergence; type: in vivo, Triticum aestivum
Procedure, shortened: as §2

[7] = test system: morningglory; assay: Test A preemergence; type: in vivo, Ipomoea spp.
Procedure, shortened: as §2

[8] = test system: wheat; assay: Test A preemergence; type: in vivo, Triticum aestivum
Procedure, shortened: as §2

[9] = test system: ragweed; assay: Test C preemergence; type: in vivo, Ambrosia elatior; settings: for Ragweed plant response rating: preemergence; for Plant response rating, Ragweed: Preemergence, scale 0 to 100, 0 no effect, 100 complete control
Text: (§3) Seeds of plant species selected from blackgrass (Alopecurus myosuroides), Italian ryegrass (Lolium multiflorum), wheat, winter (winter wheat, Triticum aestivum), galium (catchweed bedstraw, Galium aparine), corn (Zea mays), large (Lg) crabgrass (Digitaria sanguinalis), giant foxtail (Setaria faberii), johnsongrass (Sorghum halepense), lambsquarters (Chenopodium album), morningglory (Ipomoea coccinea), yellow nutsedge (Cyperus esculentus), pigweed (Amaranthus retroflexus), ragweed (common ragweed, Ambrosia elatior), soybean (Glycine max), barnyardgrass (Echinochloa crus-galli), oilseed rape (Brassica napus), waterhemp (common waterhemp, Amaranthus rudis), kochia (Kochia scoparia), wild oat (Avena fatua), surinam grass (Brachiaria decumbens), foxtail, green (green foxtail, Setaria viridis), goosegrass (Eleusine indica), bromegrass, downy (downy bromegrass, Bromus tectorum), nightshade (eastern black nightshade, Solanum ptycanthum), cocklebur (common cocklebur, Xanthium strumarium), cupgrass, woolly (woolly cupgrass, Eriochloa villosa), bermudagrass (Cynodon dactylon), sunflower, (common oilseed sunflower, Helianthus annuus), Russian thistle (Salsola kali), and velvetleaf (Abutilon theophrasti) were planted into a blend of loam soil and sand and treated preemergence with test chemicals formulated in a non-phytotoxic solvent mixture which included a surfactant.
(§4) At the same time, plants selected from these crop and weed species and also barley, winter (winter barley, Hordeum vulgare), windgrass (Apera spica-venti), chickweed (common chickweed, Stellaria media), deadnettle (henbit deadnettle, Lamium amplexicaule), and canarygrass (littleseed canarygrass, Phalaris minor) were planted in pots containing Redi-Earth® planting medium (Scotts Company, 14111 Scottslawn Road, Marysville, Ohio 43041) comprising spaghnum peat moss, vermiculite, wetting agent and starter nutrients and treated with postemergence applications of test chemicals formulated in the same manner. Plants ranged in height from 2 to 18 cm (1- to 4-leaf stage) for postemergence treatments. Treated plants and controls were maintained in a greenhouse for 13 to 15 days, after which time all species were compared to controls and visually evaluated. Plant response ratings, summarized in Table C, are based on a scale of 0 to 100 where 0 is no effect and 100 is complete control. A dash (-) response means no test result.

[10] = test system: wheat, winter; assay: Test C preemergence; type: in vivo, Triticum aestivum; settings: for Wheat plant response rating: preemergence; for Plant response rating, Wheat: Preemergence, scale 0 to 100, 0 no effect, 100 complete control
Text: as §3, §4

[11] = test system: blackgrass; assay: Test C preemergence; type: in vivo, Alopecurus myosuroides; settings: for Blackgrass plant response rating: preemergence; for Plant response rating, Blackgrass: Preemergence, scale 0 to 100, 0 no effect, 100 complete control
Text: as §3, §4

[12] = test system: johnsongrass; assay: Test C preemergence; type: in vivo, Sorghum halepense; settings: for Johnsongrass plant response rating: preemergence; for Plant response rating, Johnsongrass: Preemergence, scale 0 to 100, 0 no effect, 100 complete control
Text: as §3, §4

[13] = test system: Italian ryegrass; assay: Test C preemergence; type: in vivo, Lolium multiflorum; settings: for Ryegrass, Italian plant response rating: preemergence; for Plant response rating, Ryegrass, Italian: Preemergence, scale 0 to 100, 0 no effect, 100 complete control
Text: as §3, §4

[14] = test system: velvetleaf; assay: Test C preemergence; type: in vivo, Abutilon theophrasti; settings: for Velvetleaf plant response rating: preemergence; for Plant response rating, Velvetleaf: Preemergence, scale 0 to 100, 0 no effect, 100 complete control
Text: as §3, §4

[15] = 125 g ai/ha, 0 to 100 scale where 0 is no effect and 100 is complete control
[16] = 500 g ai/ha, 0 to 100 scale, 0 no effect, 100 complete control
[17] = 500 g ai/ha, 0 to 100 scale, 0 no effect, 100 complete control, approx. 10 days
[18] = 16 g ai/ha, scale 0 to 100 (0 no effect, 100 complete control)
[19] = 62 g ai/ha, scale 0 (no effect) to 100 (complete control)
[20] = 125 g ai/ha, scale 0 (no effect) to 100 (complete control)
[21] = 31 g ai/ha, 0 to 100 scale, 0 no effect, 100 complete control

SMILES	Plant response rating, Ducksalad [1]	Plant response rating, Sedge, Umbrella [3]	Ragweed plant response rating [9, 18]	Ragweed plant response rating [9, 19]	Ragweed plant response rating [9, 20]	Wheat plant response rating [10, 18]	Wheat plant response rating [10, 19]	Wheat plant response rating [10, 20]	Blackgrass plant response rating [11, 18]	Blackgrass plant response rating [11, 19]	Blackgrass plant response rating [11, 20]	Plant response rating, Blackgrass ([11]; 31 g ai/ha)	Johnsongrass plant response rating [12, 18]	Johnsongrass plant response rating [12, 19]	Johnsongrass plant response rating [12, 20]	Ryegrass, Italian plant response rating [13, 18]	Ryegrass, Italian plant response rating [13, 19]	Ryegrass, Italian plant response rating [13, 20]	Velvetleaf plant response rating [14, 18]	Velvetleaf plant response rating [14, 20]	further results
FC(F)(F)c1ccn(-c2ccccc2Oc2ncc(Cl)cn2)n1 [Compound 2, 5-chloro-2-[2-[3-(trifluoromethyl)-1H-pyrazol-1-yl]phenoxy]pyrimidine]																					pest or weed control at 250 g/ha ([1]; Heteranthera limosa, read-out: Plant response rating, Ducksalad): 45%; pest or weed control at 125 g/ha ([2]; Ipomoea, post-emergence, 240 h, 125 g ai/ha, 0 to 100 scale where 0 is no effect and 100 is complete control, read-out: Plant response rating, Morningglory): 30%; pest or weed control at 500 g/ha ([2]; Ipomoea, post-emergence, 240 h, 500 g ai/ha, 0 to 100 scale, 0 no effect, 100 complete control, read-out: Plant response rating Morningglory): 70%; pest or weed control at 250 g/ha ([3]; Cyperus difformis, read-out: Plant response rating, Sedge, Umbrella): 0%; pest or weed control at 500 g/ha ([4]; Abutilon theophrasti, post-emergence, 240 h, 500 g ai/ha, 0 to 100 scale, 0 no effect, 100 complete control, read-out: Plant response rating Velvetleaf): 60%; pest or weed control at 125 g/ha ([5]; Abutilon theophrasti, pre-emergence, 240 h, 125 g ai/ha, 0 to 100 scale where 0 is no effect and 100 is complete control, read-out: Velvetleaf plant response rating): 30%; pest or weed control at 500 g/ha ([5]; Abutilon theophrasti, pre-emergence, 240 h, 500 g ai/ha, 0 to 100 scale, 0 no effect, 100 complete control, approx. 10 days, read-out: Velvetleaf plant response rating): 70%; plant injury at 125 g/ha ([6]; Triticum aestivum, post-emergence, 240 h, 125 g ai/ha, 0 to 100 scale where 0 is no effect and 100 is complete control, read-out: Plant response rating, Wheat): 0%; plant injury at 500 g/ha ([6]; Triticum aestivum, post-emergence, 240 h, 500 g ai/ha, 0 to 100 scale, 0 no effect, 100 complete control, read-out: Plant response rating Wheat): 0%; pest or weed control at 500 g/ha ([7]; Ipomoea, pre-emergence, 240 h, 500 g ai/ha, 0 to 100 scale, 0 no effect, 100 complete control, approx. 10 days, read-out: Morningglory plant response rating): 20%; plant injury at 125 g/ha ([8]; Triticum aestivum, pre-emergence, 240 h, 125 g ai/ha, 0 to 100 scale where 0 is no effect and 100 is complete control, read-out: Wheat plant response rating): 0%; plant injury at 500 g/ha ([8]; Triticum aestivum, pre-emergence, 240 h, 500 g ai/ha, 0 to 100 scale, 0 no effect, 100 complete control, approx. 10 days, read-out: Wheat plant response rating): 0%
Clc1cnc(Oc2ccccc2-n2cc(Cl)cn2)nc1 [Compound 3]	90	75																			Plant response rating, Morningglory [2, 15]: 10; Plant response rating, Morningglory [2, 16]: 70; Plant response rating, Velvetleaf [4, 15]: 100; Plant response rating, Velvetleaf [4, 16]: 100; Velvetleaf plant response rating [5, 15]: 70; Velvetleaf plant response rating [5, 17]: 90; Plant response rating, Wheat [6, 15]: 0; Plant response rating, Wheat [6, 16]: 0; Morningglory plant response rating [7, 15]: 0; Morningglory plant response rating [7, 17]: 20; Wheat plant response rating [8, 15]: 0; Wheat plant response rating [8, 17]: 10
FCc1cccc(Oc2ncc(F)cn2)c1-n1cc(C(F)(F)F)cn1 [Compound 118]	90	95	70	100	100	0	10	90	35	90	95	80	0	85	100	0	70	100	100	100	Plant response rating, Ragweed ([9]; 31 g ai/ha): 100; Plant response rating, Wheat ([10]; 31 g ai/ha): 0; Plant response rating, Johnsongrass ([12]; 31 g ai/ha): 25; Plant response rating, Ryegrass, Italian ([13]; 31 g ai/ha): 40; Velvetleaf plant response rating [14, 19]: 100; Plant response rating, Velvetleaf ([14]; 31 g ai/ha): 100; Plant response rating, Wheat [6, 21]: 20
COc1cnn(-c2c(C#N)cccc2Oc2ncc(Cl)cn2)c1 [Compound 137]	30	0	45	80	95	0	0	0	0	5	10	0	0	5	45	0	0	0	40	85	Velvetleaf plant response rating [14, 19]: 65; Wheat plant response rating [6, 15]: 30; Plant response rating, Wheat ([6]; 500 g ai/ha, 0 to 100 scale where 0 is no effect and 100 is complete control): 70
N#Cc1cnn(-c2c(CF)cccc2Oc2ncc(F)cn2)c1 [Compound 151]	70	0	55	85	100	0	0	40	0	10	90	0	0	50	65	0	35	45	85	100	Velvetleaf plant response rating [14, 19]: 100; Plant response rating, Wheat [6, 21]: 20; Wheat plant response rating [6, 15]: 30
FCc1cccc(Oc2ncc(Cl)cn2)c1-n1cc(Cl)cn1 [Compound 250]	70	35	15		75	0		0	0		90		0		70	0		15	100	100	Plant response rating, Ragweed ([9]; 62 g ai/ha): 40; Plant response rating, Wheat ([10]; 62 g ai/ha): 0; Plant response rating, Blackgrass ([11]; 62 g ai/ha): 70; Plant response rating, Johnsongrass ([12]; 62 g ai/ha): 35; Plant response rating, Ryegrass, Italian ([13]; 62 g ai/ha): 5; Plant response rating, Velvetleaf ([14]; 62 g ai/ha): 100; Plant response rating, Wheat [6, 21]: 0; Plant response rating, Wheat ([6]; 125 g ai/ha, 0 to 100 scale, 0 no effect, 100 complete control): 0

From patent US9695155B2, “Herbicidal substituted pyrimidinyloxy benzene compounds” (E. I. DU PONT DE NEMOURS AND COMPANY, priority 2013, dated 2017)
